{"source": "patent US20120083522A1", "about": "“MODULATION OF INFLAMMATORY RESPONSES BY FACTOR XI” (Isis Pharmaceuitcals, inc., priority 2009, published 2012)", "note": "In the oligonucleotide strings, read from the 5' end, every base follows the letter of its sugar. An asterisk marks phosphorothioate; unmarked linkages are phosphodiester. Other units and linkages are bracketed, terminal groups are in braces. A string of capitals states the bases alone. e = 2'-O-(2-methoxyethyl) (MOE); [5mC] = 5-methylcytosine; d = 2'-deoxy (DNA)"}
{"test_system": "human Factor XI mRNA", "experiment": "Antisense inhibition in HepG2 cells by microwalk gapmers, 75 nM, lipofectin (Example 3)", "format": "cell-based", "conditions": "HepG2 cells, 75 nM, oligonucleotides targeted to nucleobases 1275 to 1318 of SEQ ID NO: 1", "summary_of_the_method": "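HepG2 cells (10,000 per well) were transfected with 75 nM gapmer using lipofectin and treated for about 24 h. Factor XI mRNA was quantified by real-time PCR, normalized to RiboGreen total RNA and expressed as percent inhibition versus untreated controls.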", "units": {"% inhibition of human Factor XI mRNA levels": "%"}}
{"substance": "416853 (antisense eT*eT*eG*eG*eT*dG*d[5mC]*dA*d[5mC]*dA*dG*dT*dT*dT*d[5mC]*eT*eG*eG*e[5mC]*eA) [compound 416853]", "% inhibition of human Factor XI mRNA levels": 91}
{"substance": "416854 (antisense eA*eT*eT*eG*eG*dT*dG*d[5mC]*dA*d[5mC]*dA*dG*dT*dT*dT*e[5mC]*eT*eG*eG*e[5mC]) [compound 416854]", "% inhibition of human Factor XI mRNA levels": 90}
{"substance": "416855 (antisense e[5mC]*eA*eT*eT*eG*dG*dT*dG*d[5mC]*dA*d[5mC]*dA*dG*dT*dT*eT*e[5mC]*eT*eG*eG) [compound 416855]", "% inhibition of human Factor XI mRNA levels": 87}
{"substance": "416862 (antisense eA*eG*e[5mC]*eG*eG*dA*d[5mC]*dG*dG*d[5mC]*dA*dT*dT*dG*dG*eT*eG*e[5mC]*eA*e[5mC]) [compound 416862]", "% inhibition of human Factor XI mRNA levels": 90}
{"substance": "416865 (antisense eT*eG*eG*e[5mC]*eA*dG*d[5mC]*dG*dG*dA*d[5mC]*dG*dG*d[5mC]*dA*eT*eT*eG*eG*eT) [compound 416865]", "% inhibition of human Factor XI mRNA levels": 88}
{"test_system": "human Factor XI mRNA", "experiment": "Antisense inhibition in HepG2 cells by microwalk gapmers, 8,000 nM, electroporation (Example 14)", "format": "cell-based", "conditions": "HepG2 cells, 8,000 nM", "procedure": "These microwalk gapmers were tested in vitro. Cultured HepG2 cells at a density of 20,000 cells per well were transfected using electroporation with 8,000 nM antisense oligonucleotide. After a treatment period of approximately 24 hours, RNA was isolated from the cells and Factor XI mRNA levels were measured by quantitative real-time PCR. Factor XI mRNA levels were adjusted according to total RNA content, as measured by RIBOGREEN. Results are presented as percent inhibition of Factor XI, relative to untreated control cells.\nThe chimeric antisense oligonucleotides in Table 51 were designed as 5-10-5 MOE, 5-8-5 and 6-8-6 MOE gapmers. The first two listed gapmers in Table 51 are the original gapmers (ISIS 416850 and ISIS 416858) from which ISIS 445493-445543 were designed via microwalk, and are designated by an asterisk. The 5-10-5 gapmers are 20 nucleotides in length, wherein the central gap segment is comprised of ten 2′-deoxynucleotides and is flanked on both sides (in the 5′ and 3′ directions) by wings comprising five nucleotides each. The 5-8-5 gapmers are 18 nucleotides in length, wherein the central gap segment is comprised of eight 2′-deoxynucleotides and is flanked on both sides (in the 5′ and 3′ directions) by wings comprising five nucleotides each. The 6-8-6 gapmers are 20 nucleotides in length, wherein the central gap segment is comprised of eight 2′-deoxynucleotides and is flanked on both sides (in the 5′ and 3′ directions) by wings comprising six nucleotides each. For each of the motifs (5-10-5, 5-8-5 and 6-8-6), each nucleotide in the 5′ wing segment and each nucleotide in the 3′ wing segment has a 2′-MOE modification. The internucleoside linkages throughout each gapmer are phosphorothioate (P═S) linkages. All cytidine residues throughout each gapmer are 5-methylcytidines. “Human Target start site” indicates the 5′-most nucleotide to which the gapmer is targeted in the human sequence. “Human Target stop site” indicates the 3′-most nucleotide to which the gapmer is targeted in the human sequence. Each gapmer listed in Table 51 is targeted to SEQ ID NO: 1 (GENBANK Accession No. NM_000128.3). Each gapmer is Table 51 is also fully cross-reactive with the rhesus monkey Factor XI gene sequence, designated herein as SEQ ID NO: 274 (exons 1-15 GENBANK Accession No. NW—001118167.1). ‘Rhesus monkey start site’ indicates the 5′-most nucleotide to which the gapmer is targeted in the rhesus monkey sequence. ‘Rhesus monkey stop site’ indicates the 3′-most nucleotide to which the gapmer is targeted to the rhesus monkey sequence.", "units": {"Percent inhibition of human Factor XI mRNA levels": "%"}}
{"substance": "416853 (antisense eT*eT*eG*eG*eT*dG*d[5mC]*dA*d[5mC]*dA*dG*dT*dT*dT*d[5mC]*eT*eG*eG*e[5mC]*eA) [compound 416853]", "Percent inhibition of human Factor XI mRNA levels": 84}
{"substance": "416854 (antisense eA*eT*eT*eG*eG*dT*dG*d[5mC]*dA*d[5mC]*dA*dG*dT*dT*dT*e[5mC]*eT*eG*eG*e[5mC]) [compound 416854]", "Percent inhibition of human Factor XI mRNA levels": 86}
{"substance": "416855 (antisense e[5mC]*eA*eT*eT*eG*dG*dT*dG*d[5mC]*dA*d[5mC]*dA*dG*dT*dT*eT*e[5mC]*eT*eG*eG) [compound 416855]", "Percent inhibition of human Factor XI mRNA levels": 85}
{"substance": "416862 (antisense eA*eG*e[5mC]*eG*eG*dA*d[5mC]*dG*dG*d[5mC]*dA*dT*dT*dG*dG*eT*eG*e[5mC]*eA*e[5mC]) [compound 416862]", "Percent inhibition of human Factor XI mRNA levels": 89}
{"substance": "416865 (antisense eT*eG*eG*e[5mC]*eA*dG*d[5mC]*dG*dG*dA*d[5mC]*dG*dG*d[5mC]*dA*eT*eT*eG*eG*eT) [compound 416865]", "Percent inhibition of human Factor XI mRNA levels": 86}
{"substance": "445516 (antisense e[5mC]*eT*eG*eG*e[5mC]*eA*dG*d[5mC]*dG*dG*dA*d[5mC]*dG*dG*e[5mC]*eA*eT*eT*eG*eG) [compound 445516]", "Percent inhibition of human Factor XI mRNA levels": 79}
{"substance": "445517 (antisense eA*e[5mC]*eT*eG*eG*e[5mC]*dA*dG*d[5mC]*dG*dG*dA*d[5mC]*dG*eG*e[5mC]*eA*eT*eT*eG) [compound 445517]", "Percent inhibition of human Factor XI mRNA levels": 74}
{"substance": "445518 (antisense eA*eG*eT*eT*eT*d[5mC]*dT*dG*dG*d[5mC]*dA*dG*dG*e[5mC]*e[5mC]*eT*e[5mC]*eG) [compound 445518]", "Percent inhibition of human Factor XI mRNA levels": 75}
{"substance": "445519 (antisense e[5mC]*eA*eG*eT*eT*dT*d[5mC]*dT*dG*dG*d[5mC]*dA*dG*eG*e[5mC]*e[5mC]*eT*e[5mC]) [compound 445519]", "Percent inhibition of human Factor XI mRNA levels": 81}
{"substance": "445520 (antisense eA*e[5mC]*eA*eG*eT*dT*dT*d[5mC]*dT*dG*dG*d[5mC]*dA*eG*eG*e[5mC]*e[5mC]*eT) [compound 445520]", "Percent inhibition of human Factor XI mRNA levels": 82}
{"substance": "445521 (antisense e[5mC]*eA*e[5mC]*eA*eG*dT*dT*dT*d[5mC]*dT*dG*dG*d[5mC]*eA*eG*eG*e[5mC]*e[5mC]) [compound 445521]", "Percent inhibition of human Factor XI mRNA levels": 87}
{"substance": "445523 (antisense eT*eG*e[5mC]*eA*e[5mC]*dA*dG*dT*dT*dT*d[5mC]*dT*dG*eG*e[5mC]*eA*eG*eG) [compound 445523]", "Percent inhibition of human Factor XI mRNA levels": 73}
{"substance": "445524 (antisense eG*eT*eG*e[5mC]*eA*d[5mC]*dA*dG*dT*dT*dT*d[5mC]*dT*eG*eG*e[5mC]*eA*eG) [compound 445524]", "Percent inhibition of human Factor XI mRNA levels": 75}
{"substance": "445525 (antisense eG*eG*eT*eG*e[5mC]*dA*d[5mC]*dA*dG*dT*dT*dT*d[5mC]*eT*eG*eG*e[5mC]*eA) [compound 445525]", "Percent inhibition of human Factor XI mRNA levels": 85}
{"substance": "445526 (antisense eT*eG*eG*eT*eG*d[5mC]*dA*d[5mC]*dA*dG*dT*dT*dT*e[5mC]*eT*eG*eG*e[5mC]) [compound 445526]", "Percent inhibition of human Factor XI mRNA levels": 81}
{"substance": "445527 (antisense eT*eT*eG*eG*eT*dG*d[5mC]*dA*d[5mC]*dA*dG*dT*dT*eT*e[5mC]*eT*eG*eG) [compound 445527]", "Percent inhibition of human Factor XI mRNA levels": 70}
{"substance": "445528 (antisense eA*eT*eT*eG*eG*dT*dG*d[5mC]*dA*d[5mC]*dA*dG*dT*eT*eT*e[5mC]*eT*eG) [compound 445528]", "Percent inhibition of human Factor XI mRNA levels": 73}
{"substance": "445529 (antisense e[5mC]*eA*eT*eT*eG*dG*dT*dG*d[5mC]*dA*d[5mC]*dA*dG*eT*eT*eT*e[5mC]*eT) [compound 445529]", "Percent inhibition of human Factor XI mRNA levels": 85}
{"substance": "445530 (antisense eG*e[5mC]*eA*eT*eT*dG*dG*dT*dG*d[5mC]*dA*d[5mC]*dA*eG*eT*eT*eT*e[5mC]) [compound 445530]", "Percent inhibition of human Factor XI mRNA levels": 83}
{"substance": "445533 (antisense eA*e[5mC]*eG*eG*e[5mC]*dA*dT*dT*dG*dG*dT*dG*d[5mC]*eA*e[5mC]*eA*eG*eT) [compound 445533]", "Percent inhibition of human Factor XI mRNA levels": 87}
{"substance": "445534 (antisense eG*eA*e[5mC]*eG*eG*d[5mC]*dA*dT*dT*dG*dG*dT*dG*e[5mC]*eA*e[5mC]*eA*eG) [compound 445534]", "Percent inhibition of human Factor XI mRNA levels": 82}
{"substance": "445535 (antisense eG*eG*eA*e[5mC]*eG*dG*d[5mC]*dA*dT*dT*dG*dG*dT*eG*e[5mC]*eA*e[5mC]*eA) [compound 445535]", "Percent inhibition of human Factor XI mRNA levels": 83}
{"substance": "445536 (antisense e[5mC]*eG*eG*eA*e[5mC]*dG*dG*d[5mC]*dA*dT*dT*dG*dG*eT*eG*e[5mC]*eA*e[5mC]) [compound 445536]", "Percent inhibition of human Factor XI mRNA levels": 82}
{"substance": "445537 (antisense eG*e[5mC]*eG*eG*eA*d[5mC]*dG*dG*d[5mC]*dA*dT*dT*dG*eG*eT*eG*e[5mC]*eA) [compound 445537]", "Percent inhibition of human Factor XI mRNA levels": 78}
{"substance": "445538 (antisense eA*eG*e[5mC]*eG*eG*dA*d[5mC]*dG*dG*d[5mC]*dA*dT*dT*eG*eG*eT*eG*e[5mC]) [compound 445538]", "Percent inhibition of human Factor XI mRNA levels": 80}
{"substance": "445539 (antisense e[5mC]*eA*eG*e[5mC]*eG*dG*dA*d[5mC]*dG*dG*d[5mC]*dA*dT*eT*eG*eG*eT*eG) [compound 445539]", "Percent inhibition of human Factor XI mRNA levels": 79}
{"substance": "445540 (antisense eG*e[5mC]*eA*eG*e[5mC]*dG*dG*dA*d[5mC]*dG*dG*d[5mC]*dA*eT*eT*eG*eG*eT) [compound 445540]", "Percent inhibition of human Factor XI mRNA levels": 74}
{"substance": "445541 (antisense eG*eG*e[5mC]*eA*eG*d[5mC]*dG*dG*dA*d[5mC]*dG*dG*d[5mC]*eA*eT*eT*eG*eG) [compound 445541]", "Percent inhibition of human Factor XI mRNA levels": 80}
{"substance": "445542 (antisense eT*eG*eG*e[5mC]*eA*dG*d[5mC]*dG*dG*dA*d[5mC]*dG*dG*e[5mC]*eA*eT*eT*eG) [compound 445542]", "Percent inhibition of human Factor XI mRNA levels": 83}
{"substance": "445543 (antisense e[5mC]*eT*eG*eG*e[5mC]*dA*dG*d[5mC]*dG*dG*dA*d[5mC]*dG*eG*e[5mC]*eA*eT*eT) [compound 445543]", "Percent inhibition of human Factor XI mRNA levels": 74}
